Broadly, the melting point is the temperature, or range, at which the solid turns liquid.

One data set relates to Rat. As to the kind of experiment: Acute feeding assay (Rat Obesity assay). Format: in vivo. From the text: Acute Feeding Assay (Rat Obesity Assay)
The efficacy of compounds of the present invention has been further verified by the results of a Rat Obesity assay shown in Table 3.

A further data set relates to Diet Induced Obese Rat. Description: Indirect calorimetry assay (food consumption, energy balance). Format: in vivo. To be noted: for Energy Balance Diet Induced Obese Rat: test dose 3 mg/kg, energy balance = caloric intake minus utilization. As to the method:
Indirect Calorimetry Assay
Twenty-four-hour energy expenditure (EE) and respiratory quotient (RQ) were measured by indirect calorimetry using an open circuit calorimetry system (Oxymax, Columbus Instruments Int. Corp., USA). RQ is the ratio of the volume of CO2 produced (VCO2) to the volume of O2 consumed (VO2). EE was calculated as the product of calorific value of oxygen (CV) and VO2 per kilogram of body weight, where CV=3.815+1.232 (RQ). Total calories expended were calculated to determine daily fuel utilization. To calculate the proportion of protein, fat and carbohydrate that is used during that 24-hour period, we used Flatt's proposal (see, Flatt J P 1991 Assessment of daily and cumulative carbohydrate and fat balances in mice. J Nutr Biochem 2:193-202.) and formulae as well as other derived constants (see Elia M, Livesey G 1992 Energy expenditure and fuel selection in biological systems: the theory and practice of calculations based on indirect calorimetry and tracer methods. World Rev Nutr Diet 70:68-131.). Food consumption over the 24-hour period was also measured. […] Results obtained for a sample of compounds of the invention with the indirect calorimetry assay are shown below in Table 4.

The conditions of data set [1]: former clinical trial candidate, development discontinued; cited from earlier work.
The subject of data set [2] is dietary induced obese rats. The conditions noted are these: cited from earlier work.
Data set [3] concerns mu, delta and kappa receptors in rat striatum/nucleus accumbens. Description: Ex-vivo receptor binding of 3H-diprenorphine in rat brain after oral dosing. To be noted: 7 mg/kg p.o., 6 hours after administration, striatum/nucleus accumbens homogenate, versus vehicle.

Consider `NC(=O)c1ccc(Oc2ccc(CNCC3CCCCC3)cc2F)nc1`, for which the melting point was in the range of 152 to 153 °C.
As to “4-(4-Pentylaminomethyl-phenoxy)-benzamide [Example 290]”, the “Doses in ug/kg to achieve effective inhibition” value in the data set with Rat amounted to 3 µg/kg. Besides, the “Inhibition of Feeding Diet Induced Obese Rat Minimum Effective Dose (MED)” value with Diet Induced Obese Rat (p.o., lowest dose with food consumption over 24 hours significantly different from vehicle) amounted to 3 mg/kg. The “Energy Balance Diet Induced Obese Rat” value with Diet Induced Obese Rat (p.o.) was -65 kcal/kg/day.
As for `CC(C)CCN(Cc1ccc(Oc2ccc(C(N)=O)cn2)c(F)c1)CC1CCCCC1` [Example 671, 6-[4-((3-Methyl-butyl), cyclohexylmethylaminomethyl)-2-fluorophenoxy]nicotinonamide], the melting point was 110 to 111 °C.
`NC(=O)c1ccc(Oc2ccc(CNCC3CC3)cc2F)nc1` [Example 673, 6-[4-(Cyclopropylmethylaminomethyl)-2-fluorophenoxy]nicotinonamide] came in with a melting point of 128 to 129 °C.
Consider `C[C@H]1CN(CC[C@H](O)C2CCCCC2)CC[C@@]1(C)c1cccc(O)c1` [LY255582, reference compound], for which the minimal effective dose in the data set on Diet Induced Obese Rat (Rattus norvegicus, po, lowest dose with food consumption over 24 hours significantly different from vehicle, read-out: Inhibition of Feeding Diet Induced Obese Rat Minimum Effective Dose (MED)) turned out to be 1 mg/kg. Besides, in the data set on Diet Induced Obese Rat (p.o.), the “Energy Balance Diet Induced Obese Rat” value is -36 kcal/kg/day. For the same compound, in data set [1], the human oral bioavailability result is “lack of satisfactory human oral bioavailability”. Moreover, in data set [2] (chronic treatment, dietary induced obese rats fed a high fat diet), the “energy balance and total body mass” value is recorded as “sustained negative energy balance leading to a decrease in total body mass”. In data set [2] (oral administration, acute and chronic treatment in rats), the food intake entry is listed as “robust reductions in food intake”. Besides, the “Ex Vivo Binding [3H]-Diprenorphine % Inhibition of at 6 hours 7 mg/kg of test compound” value in data set [3] is recorded as more than 40%.

Source of the values: patent US7531557B2, “Diaryl ethers as opioid receptor antagonists” (Eli Lilly and Company, priority 2002, dated 2009).
